Measured values taken from patent USRE39682E1, “Farnesyl derivatives and pharmaceutical compositions containing them” (Ramot at Tel Aviv University Ltd., priority 1993, dated 2007).

Assays:
PPMTase [1] = biological target: T1, PPMTase (Rattus norvegicus, UniProt Q9WVM4); test: PPMTase activity (AFC methylation) in membranes of ras-transformed rat1 cells; type: biochemical; settings: ras-transformed rat fibroblast membranes; for PPMTase activity: with inhibitor
T1 construct: PPMTase activity in membranes obtained from four different cell lines as determined by methylation of AFC; endogenous in cells; host or cells: ras-transformed rat1 (EJ) cell membranes
Description: (§1) Charles River adult male rats were used for preparation of cerebellar synaptosomal membranes. Cerebella were removed after decapitation and homogenized in 0.32M sucrose containing 50 mM Tris-HCl pH 7.4, 3 mM EDTA, 1 mM EGTA, 5 unit/ml aprotinin and 5 μg/ml pepstatin (buffer A) to yield 10% (w/v) homogenates. Nuclear fractions were obtained by 10 min. 600×g centrifugation and synaptosomal fractions were obtained by 20 mins. 14,500×g centrifugation. Membranes of the various cell types used were prepared in the above buffer A by a 60 min. spin at 100,000×g.
(§2) Pellets were resuspended in the homogenization buffer and stored at −70° C. Methylation assays were performed at 37° C. in 50 mM Tris-HCl buffer pH 7.4, using 75-125 μg protein, 25 μM [methyl-^3H]AdoMet ([…]) as a methyl donor and 150 μM AFC as a methylation substrate (prepared as a stock solution in DMSO) in a total volume of 50 μl. DMSO concentration in all assays was 4%.
(§3) Reactions were terminated after 10 min. by adding 500 μl chloroform methanol (1:1) and a subsequent addition of 250 μl H2O, mixing them and subsequently by phase separation. A portion of 125 μl of the chloroform phase was dried down at 40° C. and 200 μl of 1M NaOH/1% SDS solution were added thereto. The [^3H]methanol thus formed was counted by the vapor phase equilibrium method as described previously (Hakiai et al., Cell Mol. Neurobiol., 11, 415-431, (1991); Lenner et al., Cell Mol. Neurbiol., 12, 333 and 3351, (1992); Ben-Baruch et al., Biochem. Biophy. Res. Commun., 195, 282-288, (1993)). Typical background counts (i.e. counts of methylation with no AFC added) were 50-100 cpm while typical methylation counts with AFC as a substrate yielded 500 to 6000 cpm. Assays were performed in triplicate and background counts subtracted. Methylation of endogenous substrates, in intact cells, and [α-^32P] GTP-blot overlay assays and gel electrophoreses were performed as detailed previously (Hakiai et al., supra (1991); Lenner et al., supra (1993)).
(§4) The B16F10 melanoma cells were grown in RPMI 1640/10% fetal calf serum, 2 mM glutamine and antibiotics as for the HEC1A cells, at the density of 1×10^4 cells/well. All four types of cells were used for determining the PPMTase activity using AFC as the substrate as described above for synaptosomal membrane preparation. Usually 150 μg membranal proteins were used in the assay for a 10 min. incubation time.

PPMTase [2] = biological target: T1, PPMTase; test: PPMTase activity (AFC methylation) in membranes of non-transformed Rat-1 cells; type: biochemical; settings: non-transformed Rat-1 membranes; for PPMTase activity: with inhibitor
Description: as §1, §2, §3, §4

[3] = tested on: Ha-ras-transformed rat1 cells; test: Growth of ras-transformed rat1 cells (cell counting); type: cell-based, rat; settings: for EC50: Rattus norvegicus, 168 h, day 7 of drug treatment, estimated from dose response curves, read-out: Inhibition of rab-transformed rat1 cell growth EC50
Excerpt: (§5) The cell lines employed were rat1, -EJ, which are rat1 cells stably expressing Val- 12 activated human Ha-ras gene (Land H. et al., Nature, 304, 596-602, (1983)); V-raf-3T3, which are 3T3 cells stably expressing the V-raf gene (Xu, N., et al., Proc. Natl. Acad. Sci., 90, 6741-6745); RB-22, which are 3T3 cells stably expressing the rat Erb-B2 gene (Peles, et al., EMBO J., 10, 2077-2086 (1991)) CO6O cells (SV40-CHO), which are CHE cells stably expressing the SV-40 T-antigen gene (Lavi, Proc. Natl. Acad. Sci., 78, 6144-6148 (1981)); human endometrial carcinoma cell line HEC1A, which are cells that express activated K-ras (Enomoto T., Cancer Res., 50, 6139-6145; mouse B16F10 melanoma cells, rat pheochromocytoma PC12 cells, […] cells CHE and COS cells.
(§6) HEC1A, V-raf-3T3 and SV40-CHE cells were grown in Dulbecco's modified Eagle medium (DMEM) containing 10% fetal calf serum (FCS), 4 mM L-glutamine, 10 μg/ml streptomycin and 10 U/ml penicillin. Rat1 and -EJ cells were grown in the same medium except that it was supplemented with 12.5 U/ml nyostatin. RB-22 cells were grown in modified DMEM (1 mM sodium pyruvate, 20 mM sodium bicarbonate)/10% FCS containing 4 mM L-glutamine, […] streptomycin, 10 U/ml penicillin. PC-12 cells were grown in DMEM 15% FCS/5% horse serum and the above noted antibiotics.
(§7) HEC1A cells were plated in 24 well plates at a density of 5×10^3 cells per well and fed with 1 ml of medium. The cells were grown at 37° C. in a humidified atmosphere of 95%/5% air/CO2. All other cell types employed were plated in 24 well plates at a density of 2×10^3 cells per well and fed with the appropriate medium.
Cultures were treated with farnesyl derivatives or with solvent either 3 hrs following plating or one day after plating as indicated. […] Control cultures received 0.1% DMSO only. Cultures were fed on days 6, 7 and 9 of the experiment with the drugs or with solvent-containing media.
(§8) Cells were counted following 3, 7 and 10 days of beginning of treatments with drugs. For counting, cells were detached from plates with trypsin/EDTA, and collected by a low speed spin in the presence of DMEM/10% FCS. The pelleted cells were resuspended in a small volume of DMEM/10% FCS and counted under the microscope. Viability of cells was estimated by staining with (3-(4,5-dimethylthiosol-2-yl)-2,5-diphenyltetrazolium bromide (MTT) and microscopic examination of the stained and unstained cells, or spectrophotometric estimation (OD490, 590) of the total stain in each well. Non viable cells were estimated by the trypan blue exclusion method.
Cells were plated at a density 2×10^3/well and received either solvent or drugs one day later. Following 3, 7, or 10 days of the drugs-treatment as described above, cells were collected and the number of cells in each well was estimated by direct counting. […] The effect was apparent after a delay of at least three days. About 40-60% inhibition of cell growth was induced either by FTA or by FTS observed on days 7 and 10 of the treatment.

[4] = tested on: human endometrial carcinoma HEC1A cells; test: Growth of HEC1A cells (cell counting); type: cell-based; settings: 3 days of treatment
Excerpt: as §5, §6, §7
Cultures were treated with farnesyl derivatives or with solvent either 3 hrs following plating or one day after plating as indicated. The drugs were prepared in DMSO to yield the final desired drug (0.1-50 μM) concentration and 0.1% DMSO. Control cultures received 0.1% DMSO only. Cultures were fed on days 6, 7 and 9 of the experiment with the drugs or with solvent-containing media.
as §8, with “method. […]” for “method.”

[5] = Homo sapiens, HEC-1-A, 72 h, at 10 μM FTS or 50 μM FTA, read-out: maximal effects, inhibition of growth

T1 sequence (Q9WVM4 whole entry): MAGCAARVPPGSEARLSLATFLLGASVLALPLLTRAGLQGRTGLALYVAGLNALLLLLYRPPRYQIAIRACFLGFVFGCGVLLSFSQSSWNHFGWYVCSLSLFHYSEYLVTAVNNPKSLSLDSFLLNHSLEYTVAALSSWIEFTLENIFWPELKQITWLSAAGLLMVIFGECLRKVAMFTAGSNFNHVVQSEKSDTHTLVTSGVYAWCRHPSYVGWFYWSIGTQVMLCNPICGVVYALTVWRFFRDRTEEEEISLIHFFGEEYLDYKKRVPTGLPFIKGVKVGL

Row | Compound | % Inhibition (PPMTase [1]) [%] | PPMTase activity (PPMTase [1]) [pmol/min/mg protein] | % Inhibition (PPMTase [2]) [%] | PPMTase activity (PPMTase [2]) [pmol/min/mg protein] | EC50 [3] [µM] | drug concentration of maximum inhibition of cell growth ([3]; days 7 and 10 of treatment) [µM] | concentration of maximal effects on growth [4] [µM] | Emax [4, 5] [%] | active at concentrations times lower than those of FTA [3] [times] | Number of cells (% of control) ([3]; Hs-cis-transformed rat1, 25 μM, day 5) | inhibition of ras-transformed rat1 cell-growth ([3]; drugs on the very same day of plating) | Emax at 10 µM [4, 5] [%]
1 | CC(C)=CCC/C(C)=C/CC/C(C)=C/CSCC(=O)O [FTA, S-trans, trans-farnesylthioacetic acid, reference compound] | 72 | 1.9 | 66 | 0.9 | 25 to 50 | 50 | 50 | ~50 |  |  |  | 
2 | CC(C)=CCC/C(C)=C/CC/C(C)=C/CSc1ccccc1C(=O)O [FTS, (3,7,11-trimethyl-dodeca-2,6,10-trienyl)-2-thiobenzoic acid] | 73 | 1.8 | 45 | 1.5 | 5 to 10 |  | 10 |  | 10 | 52 ± 4 % of control | observed already after 3 days in culture | ~50
